One assay addresses Cytochrome P450 3A4 (Homo sapiens, UniProt P08684).
Assay [1] relates to Streptococcus sp. 'group A'. Briefly: growth inhibition of control SK(-) GAS strain, dose response, counter-screen for streptokinase expression inhibitor project, luminescence, kanamycin, BacTiterGlo, confirmation (AID 1900). Format: functional, organism-based. Background: The purpose of a counterscreen is to sort out artefacts and off-target activity.
Another assay concerns the target T1, Streptokinase A (Streptococcus pyogenes serotype M1, UniProt P10520).
T1 sequence (P10520 whole entry): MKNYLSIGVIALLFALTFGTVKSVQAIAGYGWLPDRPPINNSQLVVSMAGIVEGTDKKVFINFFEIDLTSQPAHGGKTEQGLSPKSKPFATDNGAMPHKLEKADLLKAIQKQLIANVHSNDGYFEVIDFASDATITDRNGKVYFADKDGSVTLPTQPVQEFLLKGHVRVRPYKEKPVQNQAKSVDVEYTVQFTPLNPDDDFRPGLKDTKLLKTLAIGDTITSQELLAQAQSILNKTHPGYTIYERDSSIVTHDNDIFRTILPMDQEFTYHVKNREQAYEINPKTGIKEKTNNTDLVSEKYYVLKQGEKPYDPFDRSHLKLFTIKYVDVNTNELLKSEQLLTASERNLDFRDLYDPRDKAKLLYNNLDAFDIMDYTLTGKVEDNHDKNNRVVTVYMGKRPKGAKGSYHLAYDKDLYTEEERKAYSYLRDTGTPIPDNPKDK
Nature of the assay: S. pyogenes streptokinase expression inhibitors, potency, dose response, plasminogen activation absorbance, OD405 (AID 1914).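 Further: secreted streptokinase activity via plasminogen activation per viability signal from cell pellet.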 Format: functional, Streptococcus pyogenes M1 GAS.

For the next assay, the system named is Streptococcus. Briefly: Group A Streptococcus viability loss, dose response, counter-screen for streptokinase expression inhibitor project, luminescence, BacTiterGlo (AID 1915).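 Further: potency for reduction of bacterial viability or growth.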 It is filed as functional, organism-based.
Assay [2] is described as follows: inhibitors of intracellular T. cruzi replication, confirmation, NIH3T3 host cells, beta-gal luminescence (AID 2044).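 Further: intracellular parasites grown in NIH/3T3 mouse fibroblasts as host cells; luminescent beta-galactosidase reporter signal from transgenic T. cruzi replicating inside host cells; inhibitors lower the luminescence signal.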 It is filed as functional, cell-based.
Assay [3] is described as follows: cytotoxicity toward NIH3T3 fibroblasts, dose response, counter-screen, cell-based, ATP luminescence, mouse fibroblasts (AID 2010).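 Further: cells exposed to compound for about 90 hours before reading.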 Format: functional.
The nature of assay [4]: inhibitors of firefly luciferase expression or activity, dose response, H4 neuroglioma cells, luminescence (AID 1990). Format: functional, cell-based.
Assay [5] can be described thus: Luminescence Cell-Based Dose Response HTS to Identify Inhibitors of 5'UTR Stem-Loop Driven Prion Protein mRNA Translation in H4 Neuroglioblastoma Cells. [Related pubchem assays: 1827 (Project Summary), 1813 (Primary HTS)]. Format: functional.
A short description of assay [6]: inhibitors of SNCA 5'UTR-driven reporter translation, confirmation, H4 neuroglioma cells, luminescence (AID 1988). Format: functional, cell-based.
Assay [7] concerns the target T2, Corticotropin-releasing factor receptor 2/Corticotropin-releasing factor-binding protein (Homo sapiens, UniProt P24387+Q13324).
T2 sequence (Q13324 whole entry): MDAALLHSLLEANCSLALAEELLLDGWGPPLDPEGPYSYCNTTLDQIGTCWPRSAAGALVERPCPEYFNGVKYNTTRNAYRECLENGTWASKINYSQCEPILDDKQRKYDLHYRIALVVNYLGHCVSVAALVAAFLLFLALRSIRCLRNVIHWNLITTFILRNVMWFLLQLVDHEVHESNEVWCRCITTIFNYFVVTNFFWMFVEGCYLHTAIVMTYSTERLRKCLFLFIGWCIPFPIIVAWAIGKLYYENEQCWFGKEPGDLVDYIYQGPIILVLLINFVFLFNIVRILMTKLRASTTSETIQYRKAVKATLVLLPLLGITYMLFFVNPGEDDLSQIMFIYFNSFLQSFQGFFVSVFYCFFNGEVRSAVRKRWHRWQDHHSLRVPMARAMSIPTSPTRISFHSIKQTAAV
T2 sequence (P24387 whole entry): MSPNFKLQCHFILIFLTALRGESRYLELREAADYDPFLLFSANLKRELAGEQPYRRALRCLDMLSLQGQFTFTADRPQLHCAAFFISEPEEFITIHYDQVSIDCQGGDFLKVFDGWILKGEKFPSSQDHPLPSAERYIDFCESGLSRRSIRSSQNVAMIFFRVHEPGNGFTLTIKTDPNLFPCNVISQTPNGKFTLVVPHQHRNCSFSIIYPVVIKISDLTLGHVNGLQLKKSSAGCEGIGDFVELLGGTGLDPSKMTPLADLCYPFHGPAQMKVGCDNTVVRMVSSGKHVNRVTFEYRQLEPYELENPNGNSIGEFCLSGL
Nature of the assay: activators of CRF receptor 2 with binding protein – uHTS hits, confirmation (AID 602473). Format: functional. To be noted: read-out: EC50_Mean.

Assay [8] can be described thus: Luminescence Cell-Based Dose Response HTS to Identify Activators of Luciferase Translation or Activity in H4 […] Cells. [Related pubchem assays: 1829 (Project Summary), 1814 (Primary HTS)]. It is filed as functional.

Calls of active or inactive are those of the source. For most assays here, no stated cut-off is given here; in the data, actives have a measured EC50 and inactives only a lower limit. Some results are limits rather than exact numbers.

Usually AC50 stands for the concentration at which the activity in the assay is half-maximal.
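Wherever AC50 is given: CYP3A4 tested as one member of a cytochrome P450 panel screen.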

Cytochrome P450 3A4, sequence (P08684 whole entry): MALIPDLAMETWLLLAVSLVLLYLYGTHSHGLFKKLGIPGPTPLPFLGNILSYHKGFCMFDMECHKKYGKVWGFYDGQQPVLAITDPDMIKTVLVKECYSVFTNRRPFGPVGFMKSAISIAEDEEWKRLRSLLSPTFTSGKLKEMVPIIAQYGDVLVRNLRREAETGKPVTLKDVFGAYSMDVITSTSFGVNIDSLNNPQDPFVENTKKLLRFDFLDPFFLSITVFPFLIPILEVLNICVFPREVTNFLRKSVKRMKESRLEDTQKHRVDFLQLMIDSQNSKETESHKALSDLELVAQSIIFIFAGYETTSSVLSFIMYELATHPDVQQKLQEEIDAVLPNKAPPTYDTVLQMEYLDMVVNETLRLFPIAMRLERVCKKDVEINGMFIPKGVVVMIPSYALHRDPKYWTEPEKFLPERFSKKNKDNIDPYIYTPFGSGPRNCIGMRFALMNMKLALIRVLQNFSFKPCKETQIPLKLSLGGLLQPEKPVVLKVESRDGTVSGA

Take `Cc1c(C)n(C(=O)CN2CCC(C)CC2)c2ccccc12`: the AC50 at Cytochrome P450 3A4 was 17.8 µM (inconclusive). On to `Sc1nnc(-c2cc(-c3ccccc3)[nH]n2)n1/N=C/c1ccc(Cl)cc1`, for which the EC50 was 18 µM (active) in assay [1], > 150 µM (not active) at Streptokinase A and 21.4 µM (active) in the assay with Streptococcus. As to `CN(c1ccc(OCC(=O)Nc2nc(-c3ccccc3)cs2)cc1)S(=O)(=O)c1ccc(F)cc1`, the figures for the EC50 in [2] and in assay [3] were 1.14 µM (active) and > 60 µM (not active), respectively.

For the molecule `OCCN1CCN(Cc2cccc(Oc3ccc(Cl)cc3)c2)CC1`, the EC50 was 3.92 µM (active) in assay [2] and > 60 µM (not active) in assay [3]. Turning to `N=c1nc(N)nc2n1NC(c1ccc(F)cc1)=CS2`, the EC50 in assay [4] was > 120 µM (not active); in [5] it was > 120 µM (not active); in [6], 13.7 µM (active). Regarding `COc1ccc(-c2cc(C(F)(F)F)n3ncc(C(=O)N4CCc5ccccc5C4)c3n2)cc1`, the values for the EC50 in [2] and in assay [3] were 1.84 µM (active) and > 60 µM (not active), respectively.

Consider `O=C(C1CCCCC1)N1CCC(c2nc(O)c3nnn(Cc4c(F)cccc4Cl)c3n2)CC1`, for which the EC50 is 4.19 µM (active) in assay [1], > 150 µM (not active) on Streptokinase A and 9.82 µM (active) with Streptococcus.

Take `COc1cccc(NC(=O)NCCCCc2ccccc2)c1`: the EC50 in assay [1] was > 150 µM (not active); on Streptokinase A, 106 µM (active); in the assay with Streptococcus it was > 150 µM (not active). Regarding `CCOC(=O)c1cccc(NC(=O)/C=C/c2ccc3c(c2)OCO3)c1`, the values for the EC50 in assay [4] and in assay [5] were 2.11 µM (active) and 0.361 µM (active), respectively.

As to `CCN(CC)c1ccc(NC(=O)c2ccc3c(c2)c(C)c(C)n3C)cc1`, the EC50 is 1.63 µM (active) in assay [2] and > 60 µM (not active) in [3]. Consider `CCOc1ccc(NC(=S)N2CCc3cc(OC)c(OC)cc3C2COc2ccc3c(C)cc(=O)oc3c2)cc1` (stereo not given), for which the EC50 in [4] is 30.4 µM (active); in assay [5], 39.9 µM (active); in [6], > 120 µM (not active).

For `Clc1ccc(-c2csc(Nc3cccnc3)n2)cc1`, the figures for the EC50 in [2] and in assay [3] were 0.3 µM (active) and > 60 µM (not active), respectively. Turning to `O=C(Oc1ccccc1)N1CCC2(CC1)CN(c1ccncc1)C2`, the concentration at half-maximal activity (AC50) on Cytochrome P450 3A4 was 15.8 µM (inconclusive). On to `CCOC(=O)c1sc2nc(Cc3ccc(Cl)cc3)nc(S)c2c1C`, for which the results for the EC50 (in assay [1]; in the assay on Streptococcus) were 4.03 µM (active) and > 150 µM (not active), respectively. In the case of `NC(=S)N/N=C\c1ccccc1OCc1ccccc1`, the EC50 is 0.623 µM (active) in [2] and > 30 µM (not active) in assay [3].

As to `CNC(=O)[C@@H]1O[C@@H](n2cnc3c(NCc4cccc(I)c4)ncnc32)[C@H](O)[C@@H]1O`, the AC50 at Cytochrome P450 3A4 is 39.8 µM (inconclusive). Regarding `O[Si@](CCCN1CCCCC1)(c1ccc(F)cc1)C1CCCCC1`, the AC50 on Cytochrome P450 3A4 is 3.98 µM (inconclusive). `Cc1ccc(Cn2nnc(C(=O)Nc3cccc(C)c3C)c2N)cc1`: in assay [7], the EC50 was 7.98 µM (active). Consider `Cc1cc(C(=O)NCC(=O)OC(C(=O)Nc2cc(C(F)(F)F)ccc2Cl)c2ccccc2)ccc1[N+](=O)[O-]` (stereo not given), for which the EC50 (in assay [1]; at Streptokinase A; with Streptococcus) was > 150 µM (not active) each time. Regarding `C[C@@H]1O[C@@H]2C3=C(C(=O)[C@H]4O[C@@H]4[C@H]3O)C1[C@@H]1[C@@H](C)OC=C3[C@H](O)[C@H]4O[C@@H]4/C(=N\OCc4ccccc4)[C@@]321`, the AC50 on Cytochrome P450 3A4 was 6.31 µM (inconclusive).

For `Cc1nn(Cc2ccccc2)c(C)c1NC(=O)c1ccc([N+](=O)[O-])cc1[N+](=O)[O-]`, the EC50 was 0.307 µM (active) in [2] and > 60 µM (not active) in assay [3]. On to `CCOC(=O)c1ccc(Nc2nc(C)nc3c2nnn3Cc2ccccc2)cc1`, for which the EC50 was 13.4 µM (active) in assay [1], > 150 µM (not active) at Streptokinase A and > 150 µM (not active) in the assay with Streptococcus. As to `Cc1ccc(NC(=N)Nc2nc(C)cc(C)n2)cc1`, in [7], the EC50 was 9.85 µM (active). `CCc1ccccc1N=C(S)NCCSc1ccc(Cl)cc1`: the EC50 in assay [1] was 19.9 µM (active); in the assay on Streptococcus, > 150 µM (not active). For `CC(CCN(C)C)OC(=O)c1ccc(C(C)c2ccccc2)o1` (stereo not given), the values for the EC50 in assay [2] and in assay [3] were 0.845 µM (active) and > 60 µM (not active), respectively. `CO[C@H]1COC(=O)C/C=C\[C@H](C)COC(=O)[C@@H](OCc2ccccc2)/C=C\[C@@H]1C`: on Cytochrome P450 3A4, the half-maximal activity concentration (AC50) was 3.98 µM (inconclusive). `O=c1c(-c2cc(F)cc(F)c2)nc2cncnc2n1Cc1ccc(F)cc1`: on Cytochrome P450 3A4, the half-maximal activity concentration (AC50) is 10 µM (inconclusive).

On to `O=C(CSc1nnnn1-c1cccc2ccccc12)Nc1ccc(N2CCOCC2)c(Cl)c1`, for which the EC50 in assay [2] was 0.457 µM (active); in assay [3], > 60 µM (inconclusive). As for `CCc1ccccc1NC(=S)NCCSc1ccc(Cl)cc1`, the EC50 at Streptokinase A was 30.5 µM (active). For the molecule `O=C(c1cc(-c2ccncc2)nc2ccc(Cl)cc12)N1CCN(Cc2ccc3c(c2)OCO3)CC1`, the EC50 in assay [2] was 0.152 µM (active); in [3] it was > 60 µM (not active). In the same order, the values of `O=C(Cn1c(C(=O)N2CCN(C3CCCCC3)CC2)cc2sccc21)c1ccccc1` are 2.53 µM (active) and > 60 µM (not active). As to `Cc1nc(-c2ccccc2)sc1-c1ccnn1C`, the EC50 in assay [8] was 0.367 µM (active). In the case of `CCOC(=O)c1sc(NC(=O)c2ccc(S(=O)(=O)N(C)C)cc2)cc1C`, the values for the EC50 in assay [2] and in [3] were 2.21 µM (active) and 8.88 µM (active), respectively.

Regarding `COc1ccc(CCn2c(C(C)C)nc3c(c(=O)c4ccccc4n3C)c2=O)cc1`, in assay [7], the EC50 was 7.87 µM (active). For the molecule `Cc1ccc(NNC(=O)C2CCC2)cc1C`, the EC50 (in [1]; at Streptokinase A; with Streptococcus) was > 150 µM (not active) in each case. Turning to `Nc1nc2n(n1)C(c1cccc(Br)c1)CC(c1ccc(F)cc1)N2` (stereo not given), in assay [7], the EC50 is > 53 µM (inactive). For the molecule `O=S(=O)(c1ccccc1)N1CCC2(CCN(c3ncccn3)CC2)CC1`, on Cytochrome P450 3A4, the concentration at half-maximal activity (AC50) is 31.6 µM (inconclusive). For `COc1ccc(Cl)cc1N=C(S)N(Cc1cccnc1)Cc1ccco1`, the EC50 in [2] is 0.722 µM (active); in [3], > 60 µM (not active). On to `C/C(CCN1CCCc2nc(C)c(C)cc21)=N\OC[C@@H](C)[C@H](OCc1ccccc1)C(C)C`, for which, on Cytochrome P450 3A4, the AC50 was 3.16 µM (inconclusive). As to `CCc1cccc(C)c1NC(=O)COC(=O)c1c2c(nc3ccccc13)/C(=C\c1cccs1)CCC2`, the EC50 was 2.22 µM (active) in [2] and > 60 µM (not active) in assay [3]. Consider `O=C(COC(=O)Cc1cn2ccsc2n1)Nc1nc2ccccc2s1`, for which the EC50 was 2.64 µM (active) in assay [1], > 150 µM (not active) on Streptokinase A and 6.72 µM (active) in the assay on Streptococcus.

Regarding `Cc1cc(C)c2nc(N(CCCN(C)C)C(=O)c3ccc4c(c3)OCCO4)sc2c1`, the EC50 in [2] was 0.5 µM (active); in assay [3], 54.2 µM (active). Regarding `C=CCNC(=S)N/N=C/c1ccc(-c2ccc(Cl)cc2Cl)o1`, the results for the EC50 in [2] and in [3] were 1.6 µM (active) and > 60 µM (not active), respectively.

The values are drawn from ChEMBL document CHEMBL1201862, “PubChem BioAssay data set” (2004).
